Laboratory results from article PMC11414412, “Design and synthesis new indole-based aromatase/iNOS inhibitors with apoptotic antiproliferative activity” (Frontiers in Chemistry, 2024).

How the values were obtained:
[1] = Cell viability assay (MTT) on normal mammary epithelial cells; type: cell-based, human; details: human, MCF-10A normal mammary gland epithelial cells, MCF-10A normal cells, 4 days incubation
Experimental: This test investigates the effects of the new compounds 3–16 on normal cell lines to determine their safety. The normal human mammary gland epithelial (MCF-10 A) cell line was used to test the viability of the tested compounds. After 4 days of incubation on MCF-10 A cells within 50 µM of each investigated compound, cell viability was determined using the MTT assay ([Gomaa et al., 2020]; [Marzouk et al., 2020]).
The normal human mammary gland epithelial (MCF-10A) cell line was used to test the viability of the tested compounds. After 4 days of incubation on MCF-10A cells within 50 µM of each investigated compound, cell viability was determined using the MTT assay ([Gomaa et al., 2020]; [Marzouk et al., 2020]). Refer to Supplementary Appendix SA1 (supp. File) for more details.
4.2. Biological evaluation
4.2.1 Cell Viability assay (MTT assay)
MTT assay was performed to investigate the effect of the synthesized compounds on mammary epithelial cells (MCF-10A). The cells were propagated in medium consisting of Ham's F-12 medium/ Dulbecco's modified Eagle's medium (DMEM) (1:1) supplemented with 10% foetal calf serum, 2 mM glutamine, insulin (10 μg/mL), hydrocortisone (500 ng/mL) and epidermal growth factor (20 ng/mL). Trypsin ethylenediamine tetra acetic acid (EDTA) was used to passage the cells after every 2-3 days. 96-well flat-bottomed cell culture plates were used to seed the cells at a density of 10^4 cells mL-1. The medium was aspirated from all the wells of culture plates after 24 h followed by the addition of synthesized compounds (in 200 μL medium to yield a final concentration of 0.1% (v/v) dimethyl sulfoxide) into individual wells of the plates. Four wells were designated to a single compound. The plates were allowed to incubate at 37°C for 96 h. Afterwards, the medium was aspirated and 3-[4,5-dimethylthiazol-2-yl]-2,5-diphenyltetrazolium bromide (MTT) (0.4 mg/mL) in medium was added to each well and subsequently incubated for 3 h. The medium was aspirated and 150 μL dimethyl sulfoxide (DMSO) was added to each well. The plates were vortexed followed by the measurement of absorbance at 540 nm on a microplate reader. The results were presented as inhibition (%) of proliferation in contrast to controls comprising 0.1%

[2] = test system: MCF-7 cells; experiment: Antiproliferative assay, MCF-7; type: cell-based; details: Homo sapiens, MCF7; MCF-7 breast cancer cell line; read-out: Antiproliferative activity IC50 ± SEM, MCF-7
Experimental: (§1) 4.2.2. Assay for antiproliferative effect
(§2) To explore the antiproliferative potential of compounds propidium iodide fluorescence assay was performed using different cell lines such as Panc-1 (pancreas cancer cell line), MCF-7 (breast cancer cell line), HT-29 (colon cancer cell line) and A-549 (epithelial cancer cell line), respectively. To calculate the total nuclear DNA, a fluorescent dye (propidium iodide, PI) is used which can attach to the DNA, thus offering a quick and precise technique. PI cannot pass through the cell membrane and its signal intensity can be considered as directly proportional to quantity of cellular DNA. Cells whose cell membranes are damaged or have changed permeability are counted as dead ones. The assay was performed by seeding the cells of different cell lines at a density of 3000-7500 cells/well (in200μl medium) in culture plates followed by incubation for 24h at 37 °C in humidified 5%CO2/95% air atmospheric conditions. The medium was removed; the compounds were added to the plates at 10 μM concentrations (in 0.1% DMSO) in triplicates, followed by incubation for 48h. DMSO (0.1%) was used as control. After incubation, medium was removed followed by the addition of PI (25 μl, 50μg/mL in water/medium) to each well of the plates. At - 80 °C, the plates were allowed to freeze for 24 h, followed by thawing at 25 °C. A fluorometer (Polar-Star BMG Tech) was used to record the readings at excitation and emission wavelengths of 530 and 620 nm for each well. The percentage cytotoxicity of compounds was calculated using […]
(§3) Where ATC= Absorbance of treated cells and AC= Absorbance of control. Erlotinib was used as positive control in the assay.

[3] = test system: Panc-1 cells; experiment: Antiproliferative assay, Panc-1; type: cell-based; details: Homo sapiens; Panc-1 pancreatic cancer cell line; read-out: Antiproliferative activity IC50 ± SEM, Panc-1
Experimental: as §1, §2, §3

[4] = test system: four human cancer cell lines (A-549, MCF-7, Panc-1, HT-29); experiment: Antiproliferative assay, average over four cancer cell lines (GI50); type: cell-based; details: for IC50: average of IC50 against A-549, MCF-7, Panc-1, HT-29
Experimental: See Supplementary Appendix SA1 for more details.
as §1
To explore the antiproliferative potential of compounds propidium iodide fluorescence assay was performed using different cell lines such as Panc-1 (pancreas cancer cell line), MCF-7 (breast […]
respectively. To calculate the total nuclear DNA, a fluorescent dye (propidium iodide, PI) is used which can attach to the DNA, thus offering a quick and precise technique. PI cannot pass through the cell membrane and its signal intensity can be considered as directly proportional to quantity of cellular DNA. Cells whose cell membranes are damaged or have changed permeability are counted as dead ones. The assay was performed by seeding the cells of different cell lines at a density of […]
The medium was removed; the compounds were added to the plates at 10 μM concentrations (in 0.1% DMSO) in triplicates, followed by incubation for 48h. DMSO (0.1%) was used as control. After incubation, medium was removed followed by the addition of PI (25 μl, 50μg/mL in water/medium) to each well of the plates. At - 80 °C, the plates were allowed to freeze for 24 h, followed by thawing at 25 °C. A fluorometer (Polar-Star BMG Tech) was used to record the readings at excitation and emission wavelengths of 530 and 620 nm for each well. The percentage cytotoxicity of compounds was calculated using […]
Where ATC= Absorbance of treated cells and AC= Absorbance of control. […]
positive control in the assay.

[5] = target: T1, aromatase (CYP19) (Homo sapiens, UniProt P11511); experiment: Aromatase inhibitory assay (Gentest kit, DBF fluorometric substrate)
T1 sequence (P11511 1-503): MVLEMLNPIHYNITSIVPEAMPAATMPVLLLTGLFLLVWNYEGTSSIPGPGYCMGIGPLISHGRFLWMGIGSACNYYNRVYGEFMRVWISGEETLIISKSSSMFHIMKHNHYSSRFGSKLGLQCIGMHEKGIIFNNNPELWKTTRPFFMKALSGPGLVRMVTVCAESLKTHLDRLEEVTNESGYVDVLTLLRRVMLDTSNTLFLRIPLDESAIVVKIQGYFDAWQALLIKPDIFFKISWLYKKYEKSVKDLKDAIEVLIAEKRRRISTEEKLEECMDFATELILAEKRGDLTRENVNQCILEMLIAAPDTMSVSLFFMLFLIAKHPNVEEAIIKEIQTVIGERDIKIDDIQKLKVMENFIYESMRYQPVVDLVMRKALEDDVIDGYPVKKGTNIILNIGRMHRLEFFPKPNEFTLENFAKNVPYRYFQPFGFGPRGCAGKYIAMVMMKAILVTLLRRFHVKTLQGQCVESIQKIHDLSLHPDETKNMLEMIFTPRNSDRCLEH
Experimental: The aromatase inhibitory effect was performed using the method reported by Stressor et al.[35].
This method was carried out according to the Gentest kit using CYP19 enzyme and DBF as a
fluorometric substrate. DBF was dealkylated by aromatase and then hydrolyzed to give the
fluorescein product. Briefly, 100 μL of cofactor, containing 78.4 μL of 50 mM phosphate buffer
(pH 7.4); 20 μL of 20x NADPH-generating system (26 mM NADP+, 66 mM glucose-6-phosphate,
and 66 mM MgCl2); and 1.6 μL of 100 U/mL glucose-6-phosphate dehydrogenase, was pipetted
into a 96-well plate and preincubated in 37 °C (water bath) for 10 min. The reaction was initiated
by addition of 100 μL of enzyme/substrate mixture containing 77.3 μL of 50 mM
phosphate buffer (pH 7.4); 12.5 μL of 16 pmol/mL CYP19; 0.2 μL of 0.2 mM DBF, and 10 μL of
0.25 mM diluted tested sample or 10% DMSO as a negative control or letrozole as a positive
control. Fluorescence signal was recorded using an excitation wavelength of 490 nm and emission
Percentage of inhibition (%inhibition) was calculated
as shown in Equation (1).
assayed in triplicate. Finally, IC50 values were determined by plot of concentrations versus %

IC50 [2] [nM]	IC50 [3] [nM]	IC50 ([4]; Homo sapiens) [nM]	IC50 [5] [nM]	Fold more effective than compound 11 (GI50) [4]	Fold potency relative to Erlotinib (GI50) ([4]; GI50 24 nM vs Erlotinib […] nM) [fold]	IC50 [4] [nM]	Fold less potent than Letrozole (aromatase IC50) [5] [fold]	Fold more potent than Ketoconazole (aromatase IC50) [5]	Structure (SMILES)	viability at 4 days, 50 µM [1] [%]
34 ± 3	32 ± 3	32	20 ± 2	–	–	–	–	–	CCc1c2cc(Cl)ccc2n2c(C)c(C(=O)OCc3ccccc3)[nH]c(=O)c12 [Compound 5, benzyl 8-chloro-10-ethyl-4-methyl-1-oxo-1,2-dihydropyrazino [1,2-a]indole-3-carboxylate]	90
30 ± 3	28 ± 2	29	15 ± 1	at least 1.4 fold	–	–	–	–	CCc1c2cc(Cl)ccc2n2c(C)c(C(=O)NCc3ccccc3)[nH]c(=O)c12 [Compound 7, N-benzyl-8-chloro-10-ethyl-4-methyl-1-oxo-1,2-dihydropyrazino [1,2-a]indole-3-carboxamide]	88
25 ± 2	24 ± 2	25	10 ± 1	–	1.4	24	5	at least 10 fold	CCc1c2cc(Cl)ccc2n2cc(Cc3ccccc3)n(C)c(=O)c12 [Compound 12, 3-Benzyl-8-chloro-10-ethyl-2-methylpyrazino[1,2-a]indol-1(2H)-one]	89
28 ± 2	25 ± 2	28	12 ± 1	at least 1.4 fold	–	26	–	–	CCc1c2cc(Cl)ccc2n2cc(-c3ccccc3)[nH]c(=O)c12 [Compound 16, 8-Chloro-10-ethyl-3-phenylpyrazino [1,2-a]indol-1(2H)-one]	91
